Data reported in patent publication US20240226115A1, “AXL INHIBITOR COMPOUNDS” (ARCUS BIOSCIENCES, INC., priority 2021, published 2024).
pIC50: −log10 of the molar value.

molecular target: T1, Axl (Homo sapiens, UniProt P30530); experiment: Axl NanoBRET intracellular kinase assay (Cell Binding); design: host or cells: HEK-293; settings: HEK-293 cells transfected with Axl-NanoLuc fusion vector; displacement of K-5 NanoBRET tracer
T1 sequence (P30530 26-894): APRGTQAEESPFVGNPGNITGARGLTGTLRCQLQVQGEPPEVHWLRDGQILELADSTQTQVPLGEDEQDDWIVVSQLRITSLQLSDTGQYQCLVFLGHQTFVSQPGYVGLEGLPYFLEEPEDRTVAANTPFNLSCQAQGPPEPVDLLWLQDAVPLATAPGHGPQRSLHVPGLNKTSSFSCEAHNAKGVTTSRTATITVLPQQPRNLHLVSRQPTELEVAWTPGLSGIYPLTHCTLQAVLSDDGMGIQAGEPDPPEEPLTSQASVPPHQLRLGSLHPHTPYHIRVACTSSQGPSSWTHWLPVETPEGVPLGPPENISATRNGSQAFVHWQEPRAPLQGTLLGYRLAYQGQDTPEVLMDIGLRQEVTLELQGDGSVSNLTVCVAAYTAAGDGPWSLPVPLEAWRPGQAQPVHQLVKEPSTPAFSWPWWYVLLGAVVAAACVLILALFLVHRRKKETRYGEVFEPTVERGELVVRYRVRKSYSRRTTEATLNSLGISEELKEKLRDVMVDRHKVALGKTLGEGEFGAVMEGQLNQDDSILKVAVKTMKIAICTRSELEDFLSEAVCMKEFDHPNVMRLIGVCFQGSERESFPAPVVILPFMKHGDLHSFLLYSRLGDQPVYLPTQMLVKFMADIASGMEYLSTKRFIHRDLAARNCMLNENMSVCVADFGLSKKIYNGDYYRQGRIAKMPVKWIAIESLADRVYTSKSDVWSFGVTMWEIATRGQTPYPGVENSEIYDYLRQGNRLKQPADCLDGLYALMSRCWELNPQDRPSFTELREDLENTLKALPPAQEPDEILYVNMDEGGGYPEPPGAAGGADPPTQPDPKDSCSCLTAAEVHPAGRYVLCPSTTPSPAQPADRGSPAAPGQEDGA
Experimental: Axl NanoBRET™ intracellular kinase assay (Promega, N2540) was performed according to manufacturer's recommendation. In brief, HEK-293 cells are transiently transfected with Axl-NanoLuc fusion vector (Promega, NV1071), utilizing Fugene HD transfection reagent (Promega, E2311) a day before experiment following manufacturer's recommendation.
The day of the assay, the cells were collected and resuspended in Opti-MEM media (ThermoFisher, 31985070) at 2e5 cells/mL concentration. Testing compounds were serial diluted and dispensed into a white 384 well polystyrene plate at 200 nL in 100% DMSO. 40 μL of resuspended cells is then added per well for a final condition of 8K cells/well with 0.5% DMSO. After one-hour compound pre-incubation at 37° C. and 5% CO2, cells were further incubated with 0.35 μM K-5 NanoBRET tracer for two-hours at 37° C. and 5% CO2. […] of 3× substrate plus Inhibitor solution was prepared according to kits manual and added to the cells followed by a 30 second pulse centrifugation spin. The plate was then immediately read utilizing an Envision (Perkin Elmer) plate reader. The BRET signal is measured by taking the ratio of the emissions reading at 610 nm and 450 nm. Compound binding is based on the decrease BRET signal caused by the displacement of the K-5 tracer. […] IC50 value of compounds was determined by 4-parameter non-linear regression fitting of percent activity in GraphPad Prism software.

pIC50 | SMILES
> 7.00 | CC1(N2CCCC2)CCc2ccc(-c3cnc4[nH]nc(-c5ccc6c(c5)OCCNC6=O)c4c3)cc2CC1 (centres unmarked) [Example 22, 8-{5-[7-Methyl-7-(pyrrolidin-1-yl)-6,7,8,9-tetrahydro-5H-benzo[7]annulen-2-yl]-1H-pyrazolo[3,4-b]pyridin-3-yl}-2,3,4,5-tetrahydro-1,4-benzoxazepin-5-one]
6.00 to 7.00 | O=C1NCCOc2cc(-c3n[nH]c4ncc(-c5ccc6c(c5)CCN(C5COC5)CC6)cc34)ccc21 [Example 11, 8-(5-(3-(Oxetan-3-yl)-2,3,4,5-tetrahydro-1H-benzo[d]azepin-7-yl)-1H-pyrazolo[3,4-b]pyridin-3-yl)-3,4-dihydrobenzo[f][1,4]oxazepin-5(2H)-one]
> 7.00 | CC1(O)CCc2cc(-c3n[nH]c4ncc(-c5ccc6c(c5)CC[C@@H](N5CCCC5)CC6)cc34)ccc21 (stereo partly drawn) [Example 30, 1-Methyl-5-{5-[(7S)-7-(pyrrolidin-1-yl)-6,7,8,9-tetrahydro-5H-benzo[7]annulen-2-yl]-1H-pyrazolo[3,4-b]pyridin-3-yl}-2,3-dihydro-1H-inden-1-ol]
> 7.00 | C[C@H]1CCCN1C1Cc2ccc(-c3cnc4[nH]nc(-c5ccc6c(c5)OCC(C)(C)NC6=O)c4c3)cc2C1 (stereo partly drawn) [Example 39, 3,3-Dimethyl-8-(5-{2-[(2S)-2-methylpyrrolidin-1-yl]-2,3-dihydro-1H-inden-5-yl}-1H-pyrazolo[3,4-b]pyridin-3-yl)-2,3,4,5-tetrahydro-1,4-benzoxazepin-5-one]
> 7.00 | O=C1NCCOc2cc(-c3n[nH]c4ncc(-c5ccc6c(c5)CCC(N5CCC[C@@H]5CO)CC6)cc34)ccc21 (stereo partly drawn) [Example 49, 8-(5-{7-[(2R)-2-(Hydroxymethyl)pyrrolidin-1-yl]-6,7,8,9-tetrahydro-5H-benzo[7]annulen-2-yl}-1H-pyrazolo[3,4-b]pyridin-3-yl)-2,3,4,5-tetrahydro-1,4-benzoxazepin-5-one]
> 7.00 | O=C1NCCOc2cc(-c3n[nH]c4ncc(-c5ccc6c(c5)CCC(N5CCCC5)C6)cc34)ccc21 (centres unmarked) [Example 2, 8-{5-[6-(Pyrrolidin-1-yl)-5,6,7,8-tetrahydronaphthalen-2-yl]-1H-pyrazolo[3,4-b]pyridin-3-yl}-2,3,4,5-tetrahydro-1,4-benzoxazepin-5-one]
> 7.00 | C[C@H]1CCCN1C1(C)CCc2ccc(-c3cnc4[nH]nc(-c5ccc6c(c5)OCCNC6=O)c4c3)cc2CC1 (stereo partly drawn) [Example 24, 8-(5-{7-Methyl-7-[(2S)-2-methylpyrrolidin-1-yl]-6,7,8,9-tetrahydro-5H-benzo[7]annulen-2-yl}-1H-pyrazolo[3,4-b]pyridin-3-yl)-2,3,4,5-tetrahydro-1,4-benzoxazepin-5-one]
6.00 to 7.00 | O=C1NCCOc2cc(-c3n[nH]c4ncc(-c5ccc6c(c5)CCC(N5CCNCC5)CC6)cc34)ccc21 (centres unmarked) [Example 48, 8-{5-[7-(Piperazin-1-yl)-6,7,8,9-tetrahydro-5H-benzo[7]annulen-2-yl]-1H-pyrazolo[3,4-b]pyridin-3-yl}-2,3,4,5-tetrahydro-1,4-benzoxazepin-5-one]
6.00 to 7.00 | O=C1NCCOc2cc(-c3n[nH]c4ncc(-c5ccc6c(c5)CNCC6)cc34)ccc21 [Example 55, 8-(5-(1,2,3,4-Tetrahydroisoquinolin-7-yl)-1H-pyrazolo[3,4-b]pyridin-3-yl)-3,4-dihydrobenzo[f][1,4]oxazepin-5(2H)-one]
> 7.00 | C[C@@H]1CCCN1C1CCc2ccc(-c3cnc4[nH]nc(-c5ccc6c(c5)OCCC6(C)O)c4c3)cc2CC1 (stereo partly drawn) [Example 29, 4-Methyl-7-(5-{7-[(2R)-2-Methylpyrrolidin-1-yl]-6,7,8,9-tetrahydro-5H-benzo[7]annulen-2-yl}-1H-pyrazolo[3,4-b]pyridin-3-yl)-3,4-dihydro-2H-1-benzopyran-4-ol]
> 7.00 | O=C1NCCOc2cc(-c3n[nH]c4ncc(-c5ccc6c(c5)CCC(N5CCC5)CC6)cc34)ccc21 (centres unmarked) [Example 52, 8-(5-(7-(Azetidin-1-yl)-6,7,8,9-tetrahydro-5H-benzo[7]annulen-2-yl)-1H-pyrazolo[3,4-b]pyridin-3-yl)-3,4-dihydrobenzo[f][1,4]oxazepin-5(2H)-one]
> 7.00 | C[C@@H]1CCCN1C1CCc2ccc(-c3cnc4[nH]nc(-c5ccc6c(c5)OCC5(CCC5)NC6=O)c4c3)cc2CC1 (stereo partly drawn) [Example 37, 8-(5-{7-[(2R)-2-Methylpyrrolidin-1-yl]-6,7,8,9-tetrahydro-5H-benzo[7]annulen-2-yl}-1H-pyrazolo[3,4-b]pyridin-3-yl)-4,5-dihydro-2H-spiro[1,4-benzoxazepine-3,1′-cyclobutan]-5-one]
> 7.00 | O=C1NCCOc2cc(-c3n[nH]c4ncc(-c5ccc6c(c5)CCC(N[C@@H]5CCOC5)CC6)cc34)ccc21 (stereo partly drawn) [Example 46, 8-[5-(7-{[(3R)—Oxolan-3-yl]amino}-6,7,8,9-tetrahydro-5H-benzo[7]annulen-2-yl)-1H-pyrazolo[3,4-b]pyridin-3-yl]-2,3,4,5-tetrahydro-1,4-benzoxazepin-5-one]
> 7.00 | C[C@@H]1CCCN1C1(C)CCc2ccc(-c3cnc4[nH]nc(-c5ccc6c(c5)OCCNC6=O)c4c3)cc2CC1 (stereo partly drawn) [Example 23, 8-(5-{7-Methyl-7-[(2R)-2-methylpyrrolidin-1-yl]-6,7,8,9-tetrahydro-5H-benzo[7]annulen-2-yl}-1H-pyrazolo[3,4-b]pyridin-3-yl)-2,3,4,5-tetrahydro-1,4-benzoxazepin-5-one]
> 7.00 | C[C@@H]1CCCN1C1CCc2ccc(-c3cnc4[nH]nc(-c5ccc6c(c5F)OCCNC6=O)c4c3)cc2CC1 (stereo partly drawn) [Example 60, 9-Fluoro-8-(5-{7-[(2R)-2-methylpyrrolidin-1-yl]-6,7,8,9-tetrahydro-5H-benzo[7]annulen-2-yl}-1H-pyrazolo[3,4-b]pyridin-3-yl)-2,3,4,5-tetrahydro-1,4-benzoxazepin-5-one]
6.00 to 7.00 | O=C1NCCOc2cc(-c3n[nH]c4ncc(-c5ccc6c(c5)CCN(C(=O)C5CC5)CC6)cc34)ccc21 [Example 17, 8-[5-(3-Cyclopropanecarbonyl-2,3,4,5-tetrahydro-1H-3-benzazepin-7-yl)-1H-pyrazolo[3,4-b]pyridin-3-yl]-2,3,4,5-tetrahydro-1,4-benzoxazepin-5-one]
> 7.00 | CC1(C)NS(=O)(=O)c2cc(-c3n[nH]c4ncc(-c5ccc6c(c5)CCC(N5CCC[C@@H]5CO)CC6)cc34)ccc21 (stereo partly drawn) [Example 34, 6-(5-{7-[(2R)-2-(Hydroxymethyl)pyrrolidin-1-yl]-6,7,8,9-tetrahydro-5H-benzo[7]annulen-2-yl}-1H-pyrazolo[3,4-b]pyridin-3-yl)-3,3-dimethyl-2,3-dihydro-1λ^6,2-benzothiazole-1,1-dione]
6.00 to 7.00 | O=C1NCCOc2cc(-c3n[nH]c4ncc(-c5ccc6c(c5)CCC(N5CC[C@@H](O)C5)CC6)cc34)ccc21 (stereo partly drawn) [Example 51, 8-(5-(7-((R)-3-Hydroxypyrrolidin-1-yl)-6,7,8,9-tetrahydro-5H-benzo[7]annulen-2-yl)-1H-pyrazolo[3,4-b]pyridin-3-yl)-3,4-dihydrobenzo[f][1,4]oxazepin-5(2H)-one]
6.00 to 7.00 | O=C1NCCOc2cc(-c3n[nH]c4ncc(-c5ccc6c(c5)CC(N5CCCC5)CC6)cc34)ccc21 (centres unmarked) [Example 3, 8-{5-[7-(Pyrrolidin-1-yl)-5,6,7,8-tetrahydronaphthalen-2-yl]-1H-pyrazolo[3,4-b]pyridin-3-yl}-2,3,4,5-tetrahydro-1,4-benzoxazepin-5-one]
> 7.00 | O=C1NCCOc2cc(-c3n[nH]c4ncc(-c5ccc6c(c5)CCC(N[C@H]5CCOC5)CC6)cc34)ccc21 (stereo partly drawn) [Example 45, 8-[5-(7-{[(3S)—Oxolan-3-yl]amino}-6,7,8,9-tetrahydro-5H-benzo[7]annulen-2-yl)-1H-pyrazolo[3,4-b]pyridin-3-yl]-2,3,4,5-tetrahydro-1,4-benzoxazepin-5-one]
